Results from ChEMBL document CHEMBL1125573 (J Med Chem, 1992).

Experiments:
[1] = biological target: Serotonin 2 (5-HT2) receptor (Rattus norvegicus, UniProt P30994+P08909+P14842); assay: The compound was tested in vitro for binding affinity towards 5-hydroxytryptamine 2 receptor by displacing [125]I-LSD radioligand; format: protein assay
[2] = biological target: Dopamine D2 receptor/Serotonin 2 (5-HT2) receptor (Rattus norvegicus) (UniProt P61169+P30994+P08909+P14842); assay: Relative binding affinity for dopamine D2 and 5-HT2 receptors; format: protein assay
Sequence of Dopamine D2 receptor/Serotonin 2 (5-HT2) receptor (Rattus norvegicus) (P08909 whole entry, looked up): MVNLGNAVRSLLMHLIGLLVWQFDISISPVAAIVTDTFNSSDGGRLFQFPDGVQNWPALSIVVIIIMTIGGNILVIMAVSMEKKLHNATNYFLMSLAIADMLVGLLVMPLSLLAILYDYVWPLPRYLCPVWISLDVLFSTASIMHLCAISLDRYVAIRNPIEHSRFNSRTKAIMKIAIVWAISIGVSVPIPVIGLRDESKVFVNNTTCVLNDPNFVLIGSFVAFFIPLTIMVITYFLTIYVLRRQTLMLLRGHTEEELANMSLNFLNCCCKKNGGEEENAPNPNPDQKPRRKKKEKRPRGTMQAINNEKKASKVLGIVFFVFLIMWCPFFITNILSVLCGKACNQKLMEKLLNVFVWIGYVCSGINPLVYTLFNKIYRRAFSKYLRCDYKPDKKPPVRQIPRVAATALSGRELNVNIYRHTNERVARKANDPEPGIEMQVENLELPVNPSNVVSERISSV
Sequence of Dopamine D2 receptor/Serotonin 2 (5-HT2) receptor (Rattus norvegicus) (P14842 whole entry, looked up): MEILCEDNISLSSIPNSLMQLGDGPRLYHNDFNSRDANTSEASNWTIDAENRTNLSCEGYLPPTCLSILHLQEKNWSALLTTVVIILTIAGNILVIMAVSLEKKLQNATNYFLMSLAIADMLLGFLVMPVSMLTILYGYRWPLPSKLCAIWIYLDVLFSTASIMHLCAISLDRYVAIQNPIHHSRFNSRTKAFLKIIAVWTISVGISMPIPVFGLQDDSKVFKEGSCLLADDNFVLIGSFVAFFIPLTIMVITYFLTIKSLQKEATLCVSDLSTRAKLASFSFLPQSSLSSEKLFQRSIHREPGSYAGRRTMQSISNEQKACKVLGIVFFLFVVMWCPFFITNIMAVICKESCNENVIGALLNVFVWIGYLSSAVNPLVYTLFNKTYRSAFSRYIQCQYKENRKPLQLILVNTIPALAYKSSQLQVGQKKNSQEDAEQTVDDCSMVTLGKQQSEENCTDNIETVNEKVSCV
Sequence of Dopamine D2 receptor/Serotonin 2 (5-HT2) receptor (Rattus norvegicus) (P30994 whole entry, looked up): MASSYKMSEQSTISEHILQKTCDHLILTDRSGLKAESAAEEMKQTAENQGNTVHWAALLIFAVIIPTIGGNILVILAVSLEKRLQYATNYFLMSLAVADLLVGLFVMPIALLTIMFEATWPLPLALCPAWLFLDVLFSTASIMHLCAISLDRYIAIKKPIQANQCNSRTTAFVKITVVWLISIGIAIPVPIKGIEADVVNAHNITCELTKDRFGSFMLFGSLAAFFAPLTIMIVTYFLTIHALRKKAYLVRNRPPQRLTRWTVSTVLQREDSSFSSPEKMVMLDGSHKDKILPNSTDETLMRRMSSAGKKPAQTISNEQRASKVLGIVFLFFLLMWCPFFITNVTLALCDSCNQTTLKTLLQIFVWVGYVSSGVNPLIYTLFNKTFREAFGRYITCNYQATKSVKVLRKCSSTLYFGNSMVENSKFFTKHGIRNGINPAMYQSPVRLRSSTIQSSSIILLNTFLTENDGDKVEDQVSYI
Sequence of Dopamine D2 receptor/Serotonin 2 (5-HT2) receptor (Rattus norvegicus) (P61169 whole entry, looked up): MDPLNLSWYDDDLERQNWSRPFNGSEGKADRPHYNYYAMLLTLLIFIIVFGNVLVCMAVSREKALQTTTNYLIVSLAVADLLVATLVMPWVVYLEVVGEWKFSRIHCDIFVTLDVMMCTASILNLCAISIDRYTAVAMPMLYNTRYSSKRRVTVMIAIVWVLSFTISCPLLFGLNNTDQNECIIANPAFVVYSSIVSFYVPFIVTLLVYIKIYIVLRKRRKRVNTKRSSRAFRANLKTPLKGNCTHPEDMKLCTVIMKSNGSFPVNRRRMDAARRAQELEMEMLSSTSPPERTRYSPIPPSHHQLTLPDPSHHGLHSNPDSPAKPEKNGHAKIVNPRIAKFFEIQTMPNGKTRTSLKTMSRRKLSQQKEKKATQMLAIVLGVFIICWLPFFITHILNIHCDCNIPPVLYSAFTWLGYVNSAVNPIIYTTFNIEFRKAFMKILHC

D(2) dopamine receptor [3] = biological target: T1, D(2) dopamine receptor (Rattus norvegicus, UniProt P61169); assay: Displacement of [3H]spiperone from dopamine receptor D2
T1 sequence (P61169 whole entry): as the sequence (P61169 whole entry, looked up) above

D(2) dopamine receptor [4] = biological target: T1, D(2) dopamine receptor; assay: Binding affinity towards Dopamine receptor D2 by displacing [3H]spiperone

Compound `CC(C)CCN1CN(c2ccccc2)C2(CCN(CCCC(=O)c3ccc(F)cc3)CC2)C1=O` has a Ki [1] of 1.3 nM, a Ratio [2] of 21 and a Ki (D(2) dopamine receptor [3]) of 0.063 nM.

`O=C(CCCN1CCC2(CC1)C(=O)N(Cc1ccc(F)cc1)CN2c1ccccc1)c1ccc(F)cc1` showed a Ki [1] of 21 nM, a Ratio [2] of 300 and a Ki (D(2) dopamine receptor [3]) of 0.069 nM.

In the case of `O=C(CCCN1CCC2(CC1)C(=O)N(Cc1ccc(I)cc1)CN2c1ccccc1)c1ccc(F)cc1`, the Ki [1] is reported as 89 nM and the Ki (D(2) dopamine receptor [4]) is reported as 0.213 nM.

In the case of `O=C(CCCN1CCC2(CC1)C(=O)N(CCc1ccccc1)CN2c1ccccc1)c1ccc(F)cc1`, the Ki [1] is reported as 1 nM, the Ratio [2] is reported as 29 and the Ki (D(2) dopamine receptor [3]) is reported as 0.035 nM.

In the case of `CN1CN(c2ccccc2)C2(CCN(CCCC(=O)c3ccc(F)cc3)CC2)C1=O` [MESPIPERONE], the Ki [1] is reported as 0.55 nM and the Ki (D(2) dopamine receptor [4]) is reported as 0.118 nM.

`O=C(CCCN1CCC2(CC1)C(=O)N(Cc1ccccc1)CN2c1ccccc1)c1ccc(F)cc1` was tested, and the Ki [1] was 3.2 nM, the Ratio [2] was 140 and the Ki (D(2) dopamine receptor [3]) was 0.023 nM.

With `CC(C)CN1CN(c2ccccc2)C2(CCN(CCCC(=O)c3ccc(F)cc3)CC2)C1=O` the Ki [1] was 0.13 nM, the Ratio [2] was 3.3 and the Ki (D(2) dopamine receptor [3]) was 0.039 nM.

`COc1ccccc1CN1CN(c2ccccc2)C2(CCN(CCCC(=O)c3ccc(F)cc3)CC2)C1=O` showed a Ki [1] of 1.9 nM and a Ki (D(2) dopamine receptor [4]) of 0.047 nM.

With `O=C(CCCN1CCC2(CC1)C(=O)N(Cc1cccc(F)c1)CN2c1ccccc1)c1ccc(F)cc1` the Ki [1] was 5.3 nM, the Ratio [2] was 230 and the Ki (D(2) dopamine receptor [3]) was 0.023 nM.

In the case of `Cc1ccccc1CN1CN(c2ccccc2)C2(CCN(CCCC(=O)c3ccc(F)cc3)CC2)C1=O`, the Ki [1] is reported as 9.6 nM, the Ratio [2] is reported as 290 and the Ki (D(2) dopamine receptor [3]) is reported as 0.033 nM.

For `O=C(CCCN1CCC2(CC1)C(=O)N(Cc1ccccc1F)CN2c1ccccc1)c1ccc(F)cc1`, the Ki [1] was 4.4 nM, the Ratio [2] was 100 and the Ki (D(2) dopamine receptor [3]) was 0.043 nM.

`O=C(CCCN1CCC2(CC1)C(=O)N(Cc1ccc([N+](=O)[O-])cc1)CN2c1ccccc1)c1ccc(F)cc1` gave a Ki [1] of 14 nM and a Ki (D(2) dopamine receptor [4]) of 0.119 nM.

`CCCN1CN(c2ccccc2)C2(CCN(CCCC(=O)c3ccc(F)cc3)CC2)C1=O` was tested, and the Ki [1] was 0.096 nM, the Ratio [2] was 3.3 and the Ki (D(2) dopamine receptor [3]) was 0.029 nM.

`O=C(CCCN1CCC2(CC1)C(=O)N(Cc1ccccc1[N+](=O)[O-])CN2c1ccccc1)c1ccc(F)cc1` showed a Ki [1] of 0.68 nM and a Ki (D(2) dopamine receptor [4]) of 0.12 nM.

`CCN1CN(c2ccccc2)C2(CCN(CCCC(=O)c3ccc(F)cc3)CC2)C1=O` gave a Ki [1] of 0.31 nM and a Ki (D(2) dopamine receptor [4]) of 0.057 nM.

Compound `COc1ccc(CN2CN(c3ccccc3)C3(CCN(CCCC(=O)c4ccc(F)cc4)CC3)C2=O)cc1` has a Ki [1] of 12 nM and a Ki (D(2) dopamine receptor [4]) of 0.087 nM.

Work on `CCCCN1CN(c2ccccc2)C2(CCN(CCCC(=O)c3ccc(F)cc3)CC2)C1=O` yielded a Ki [1] of 0.41 nM, a Ratio [2] of 11 and a Ki (D(2) dopamine receptor [3]) of 0.036 nM.

For `CCCCCN1CN(c2ccccc2)C2(CCN(CCCC(=O)c3ccc(F)cc3)CC2)C1=O`, the Ki [1] was 1.1 nM, the Ratio [2] was 18 and the Ki (D(2) dopamine receptor [3]) was 0.062 nM.

In the case of `O=C(CCCN1CCC2(CC1)C(=O)N(Cc1ccccc1I)CN2c1ccccc1)c1ccc(F)cc1`, the Ki [1] is reported as 19 nM and the Ki (D(2) dopamine receptor [4]) is reported as 0.063 nM.

Compound `Cc1ccc(CN2CN(c3ccccc3)C3(CCN(CCCC(=O)c4ccc(F)cc4)CC3)C2=O)cc1` has a Ki [1] of 37 nM and a Ki (D(2) dopamine receptor [4]) of 0.067 nM.
